{"source": "patent EP1369114A1", "about": "“Use of tryptophan metabolites as pharmaceutical agents” (Terness, Peter, Priv. Doz. Dr., priority 2002, dated 2003)", "test_system": "kynurenine-suppressed T cells", "experiment": "Polyclonal restimulation with Concanavalin A of T cells suppressed during anti-CD3 stimulation", "type": "cell-based, human", "conditions": "anti-CD3 plus kynurenine 2 days, washed, Con-A in the absence of kynurenine", "experimental": "• (a) Allogeneic T-cell response. DCs were infected with recombinant IDO-adeno-GFP (DC-IDO-GFP), IDO-adeno (DC-IDO) or with control adenoviruses (DC-adeno) at a MOI (multiplicity of infection) up to 500 for 2 days. Lymphocytes (PBMCs) were separated from peripheral blood of healthy donors by density gradient centrifugation and typed for HLA antigens. Only HLA-DR-different responder lymphocytes were used for DC-induced stimulation. […] After 5 days, ^3[H]-thymidin was added for 12hrs and the number of counts (counts per minute = cpm) determined in a (3-counter (Inotech Biosystems, Lansing, MI). In order to verify whether IDO expression or adenovirus infection harm the DCs, 10^5 cells were infected with IDO-adeno-GFP, IDO-adenovirus, or adenovirus only at a stepwise decreasing MOI (500, 250, 125, ........ 3.9) and cell viability was measured in FACS following double staining with 7-AAD and anti-CD83 antibody-PE. The percentage of dead cells never exceeded 30% for any MOI following IDO-adeno-GFP- or IDO-adeno-infection and 40% following adenovirus(control)-infection. […] After 2 days, cell proliferation was assessed by measuring ^3[H]-thymidin incorporation (cpm) as described. • (c) Tryptophan metabolite titration curves. […] After 2 days, ^3[H] thymidin was added and the number of counts recorded. […] After another 2 days, ^3[H] thymidin was added and cpm determined. […]", "data": [{"smiles": "Nc1ccccc1C(=O)CC(N)C(=O)O", "note": "(stereo not shown) [kynurenine]", "values": [{"measurement": "restimulation with Con-A after suppression", "result": "cannot be restimulated"}]}]}
